Source: ChEMBL document CHEMBL3425422, “Discovery of a potent microtubule-targeting agent: Synthesis and biological evaluation of water-soluble amino acid prodrug of combretastatin A-4 derivatives” (Bioorg Med Chem Lett, 2015)
The source made the active and inactive calls. No cut-off for these calls is given here.

How the values were obtained:
[1] = Cytotoxicity against human SKOV3 cells assessed as cell viability after 48 hrs by MTT assay; type: functional, cell-based; settings: SK-OV-3, 48 h
Serum [2] = assay: Stability of the compound in Wistar rat serum assessed as prodrug degradation after 24 hrs; type: ADME, cell-free
[3] = Antitumor activity against human SKOV3 cells xenografted in BALB/C mouse assessed as inhibition ratio at 10 mg/kg, iv qd relative to control; type: functional; settings: SK-OV-3
NCI-H460 = assay: Antitumor activity against human H460 cells xenografted in BALB/C mouse assessed as mouse survival at 20 mg/kg, ip qd relative to control; type: functional, organism-based; parameters: dose 20 mg/kg
[4] = Antitumor activity against human H460 cells xenografted in BALB/C mouse assessed as inhibition ratio at 20 mg/kg, ip qd relative to control; type: functional; settings: NCI-H460, ip, route intraperitoneal
SK-OV-3 [5] = assay: Antitumor activity against human SKOV3 cells xenografted in BALB/C mouse assessed as mouse survival at 10 mg/kg, iv qd relative to control; type: functional, organism-based; parameters: dose 10 mg/kg
HepG2 [6] = assay: Cytotoxicity against human HepG2 cells assessed as cell viability after 48 hrs by MTT assay; type: functional, cell-based; settings: HepG2, 48 h
[7] = Aqueous solubility of the compound; type: physicochemical; settings: water (aqueous)
[8] = Cytotoxicity against human H460 cells assessed as cell viability after 48 hrs by MTT assay; type: functional, cell-based; settings: NCI-H460, 48 h
Serum [9] = assay: Stability of the compound in Wistar rat serum assessed as prodrug degradation after 6 hrs; type: ADME, cell-free
HepG2 [10] = assay: Disruption of microtubule organization in human HepG2 cells at 100 nM after 12 hrs by DAPI staining-based fluorescence microscopy; type: functional, cell-based
SK-OV-3 [11] = assay: Antimitotic effect in human SKOV3 cells assessed as decrease in p-cdc2 level by Western blot analysis; type: functional, cell-based
SK-OV-3 [12] = assay: Induction of apoptosis in human SKOV3 cells assessed as PARP cleavage at 100 to 1000 nM after 48 hrs by Western blot analysis; type: functional, cell-based
SK-OV-3 [13] = assay: Induction of cell cycle arrest in human SKOV3 cells assessed as accumulation at G2 phase at 500 nM after 24 hrs by FCM analysis (reference value: 15.07%); type: functional
SK-OV-3 [14] = assay: Induction of cell cycle arrest in human SKOV3 cells assessed as accumulation at G1 phase at 100 nM after 24 hrs by FCM analysis (reference value: 60.84%); type: functional
SK-OV-3 [15] = assay: Induction of apoptosis in human SKOV3 cells assessed as decrease in pro-caspase-3 protein level at 100 to 1000 nM after 48 hrs by Western blot analysis; type: functional, cell-based
SK-OV-3 [16] = assay: Induction of cell cycle arrest in human SKOV3 cells assessed as accumulation at G1 phase at 500 nM after 24 hrs by FCM analysis (reference value: 60.84%); type: functional
SK-OV-3 [17] = assay: Induction of apoptosis in human SKOV3 cells assessed as decrease in pro-caspase-9 protein level at 100 to 1000 nM after 48 hrs by Western blot analysis; type: functional, cell-based
Tubulin (Homo sapiens) [18] = biological target: T1, Tubulin (Homo sapiens) (UniProt P68371+Q9H4B7+P0DPH7+P68366+Q13509+Q71U36+P04350+Q3ZCM7+P07437+P68363+Q9BQE3+Q6PEY2+Q13885+Q9BVA1+Q9BUF5); assay: Inhibition of tubulin polymerization in human SKOV3 cells assessed as increase in depolymerized (soluble) tubulin level at 0.1 to 1 uM after 24 hrs by Western blot analysis; type: cell-based; settings: SK-OV-3
SK-OV-3 [19] = assay: Induction of cell cycle arrest in human SKOV3 cells assessed as accumulation at S phase at 100 nM after 24 hrs by FCM analysis (reference value: 24.09%); type: functional
SK-OV-3 [20] = assay: Induction of apoptosis in human SKOV3 cells assessed as decrease in Bcl-2/Bax ratio at 100 to 1000 nM after 48 hrs by Western blot analysis; type: functional, cell-based
SK-OV-3 [21] = assay: Antimitotic effect in human SKOV3 cells assessed as decrease in cdc2 level by Western blot analysis; type: functional, cell-based
SK-OV-3 [22] = assay: Antimitotic effect in human SKOV3 cells assessed as decrease in cdc25 level by Western blot analysis; type: functional, cell-based
SK-OV-3 [23] = assay: Induction of cell cycle arrest in human SKOV3 cells assessed as accumulation at G2/M phase at 100 nM after 24 hrs by FCM analysis (reference value: 15.30%); type: functional
Tubulin (Homo sapiens) [24] = biological target: T1, Tubulin (Homo sapiens); assay: Inhibition of tubulin polymerization (unknown origin) at 5 uM by cell-free tubulin polymerization assay; type: protein-complex assay
SK-OV-3 [25] = assay: Induction of cell cycle arrest in human SKOV3 cells assessed as accumulation at G1 phase at 50 nM after 24 hrs by FCM analysis (reference value: 60.84%); type: functional
SK-OV-3 [26] = assay: Induction of cell cycle arrest in human SKOV3 cells assessed as accumulation at G2/M phase after 24 hrs by FCM analysis; type: functional, cell-based
Rattus norvegicus = assay: Prodrug conversion in rat assessed as 4-(4-ethoxyphenyl)-5-(3,4,5-trimethoxyphenyl)thiazol-2-amine in plasma measured as half life at 10 mg/kg, iv; type: ADME, organism-based; parameters: dose 10 mg/kg, route intravenous; settings: in vivo
SK-OV-3 [27] = assay: Induction of cell cycle arrest in human SKOV3 cells assessed as accumulation at G2 phase at 100 nM after 24 hrs by FCM analysis (reference value: 15.07%); type: functional
Tubulin (Homo sapiens) [28] = biological target: T1, Tubulin (Homo sapiens); assay: Displacement of colchicine from tubulin (unknown origin) after 1 hr by fluorescence based competitive tubulin-binding assay; type: protein-complex assay
SK-OV-3 [29] = assay: Induction of cell cycle arrest in human SKOV3 cells assessed as accumulation at G2 phase at 50 nM after 24 hrs by FCM analysis (reference value: 15.07%); type: functional
Tubulin (Homo sapiens) [30] = biological target: T1, Tubulin (Homo sapiens); assay: Inhibition of tubulin polymerization (unknown origin) at 5 to 10 uM by cell-free tubulin polymerization assay; type: protein-complex assay
HepG2 [31] = assay: Disruption of microtubule organization in human HepG2 cells at 500 nM after 12 hrs by DAPI staining-based fluorescence microscopy; type: functional, cell-based
SK-OV-3 [32] = assay: Induction of cell cycle arrest in human SKOV3 cells assessed as accumulation at S phase at 50 nM after 24 hrs by FCM analysis (reference value: 24.09%); type: functional
SK-OV-3 [33] = assay: Induction of cell cycle arrest in human SKOV3 cells assessed as accumulation at S phase at 500 nM after 24 hrs by FCM analysis (reference value: 24.09%); type: functional
SK-OV-3 [34] = assay: Induction of MAPK phosphorylation in human SKOV3 cells at 500 nM after 24 hrs by Western blot analysis; type: functional, cell-based
Tubulin (Homo sapiens) [35] = biological target: T1, Tubulin (Homo sapiens); assay: Inhibition of tubulin polymerization in human SKOV3 cells assessed as increase in polymerized (insoluble) tubulin level at 0.1 to 1 uM after 24 hrs by Western blot analysis; type: cell-based; settings: SK-OV-3
SK-OV-3 [36] = assay: Antimitotic effect in human SKOV3 cells assessed as increase in cyclin B level by Western blot analysis; type: functional, cell-based
SK-OV-3 [37] = assay: Induction of cell cycle arrest in human SKOV3 cells assessed as accumulation at G2/M phase at 500 nM after 24 hrs by FCM analysis (reference value: 15.30%); type: functional

CCOc1ccc(-c2nc(NC(=O)[C@H](C)N)sc2-c2cc(OC)c(OC)c(OC)c2)cc1.Cl
IC50 [1]: 0.46 µM
Drug degradation (Serum [2]): 99.53%
inhibition in vivo at 10 mg/kg [3]: 28.7%
Activity (NCI-H460): Active
inhibition in vivo at 20 mg/kg [4]: 56.6%
Activity (SK-OV-3 [5]): Active
IC50 (HepG2 [6]): 0.43 µM
solubility [7]: > 10000 µM
IC50 [8]: 0.21 µM
Drug degradation (Serum [9]): 93.03%

CCOc1ccc(-c2nc(NC(=O)[C@@H](N)CCSC)sc2-c2cc(OC)c(OC)c(OC)c2)cc1
IC50 [1]: 0.38 µM
IC50 (HepG2 [6]): 0.52 µM
IC50 [8]: > 2 µM

CCOc1ccc(-c2nc(NC(=O)[C@H](N)Cc3ccccc3)sc2-c2cc(OC)c(OC)c(OC)c2)cc1
IC50 [1]: > 2 µM
IC50 (HepG2 [6]): 0.6 µM
IC50 [8]: > 2 µM

CCOc1ccc(-c2nc(NC(=O)[C@H](N)CC(C)C)sc2-c2cc(OC)c(OC)c(OC)c2)cc1.Cl
IC50 [1]: 0.09 µM
Drug degradation (Serum [2]): 91.1%
inhibition in vivo at 10 mg/kg [3]: 33.1%
Activity (NCI-H460): Active
inhibition in vivo at 20 mg/kg [4]: 52.6%
Activity (SK-OV-3 [5]): Active
IC50 (HepG2 [6]): 0.14 µM
solubility [7]: 554 µM
IC50 [8]: 0.19 µM
Drug degradation (Serum [9]): 70.78%

CCOc1ccc(-c2nc(N)sc2-c2cc(OC)c(OC)c(OC)c2)cc1
IC50 [1]: 0.01 µM
IC50 (HepG2 [6]): 0.21 µM
solubility [7]: < 100 µM
IC50 [8]: 0.2 µM

CCOc1ccc(-c2nc(NC(=O)[C@H]3CCCN3)sc2-c2cc(OC)c(OC)c(OC)c2)cc1
IC50 [1]: 0.51 µM
IC50 (HepG2 [6]): 0.29 µM
IC50 [8]: > 2 µM

CCOc1ccc(-c2nc(NC(=O)C(C)(C)N)sc2-c2cc(OC)c(OC)c(OC)c2)cc1
IC50 [1]: 0.9 µM
IC50 (HepG2 [6]): 0.6 µM
IC50 [8]: > 2 µM

CCOc1ccc(-c2nc(NC(=O)[C@@H](N)C(C)C)sc2-c2cc(OC)c(OC)c(OC)c2)cc1.Cl
Activity (HepG2 [10]): Active
IC50 [1]: 0.42 µM
Drug degradation (Serum [2]): 38.23%
inhibition (SK-OV-3 [11]): Active
Activity (SK-OV-3 [12]): Active
Activity (SK-OV-3 [13]): 94.51%
Activity (SK-OV-3 [14]): 43.5%
Activity (SK-OV-3 [15]): Active
Activity (SK-OV-3 [16]): 1.22%
inhibition in vivo at 10 mg/kg [3]: 43.1%
Activity (SK-OV-3 [17]): Active
inhibition (Tubulin (Homo sapiens) [18]): Active
Activity (SK-OV-3 [19]): 15.49%
Activity (NCI-H460): Active
Activity (SK-OV-3 [20]): Active
inhibition (SK-OV-3 [21]): Active
inhibition (SK-OV-3 [22]): Active
Activity (SK-OV-3 [23]): 41.4%
inhibition (Tubulin (Homo sapiens) [24]): Active
inhibition in vivo at 20 mg/kg [4]: 55%
Activity (SK-OV-3 [25]): 55.67%
Activity (SK-OV-3 [5]): Active
Activity (SK-OV-3 [26]): Dose-dependent effect
IC50 (HepG2 [6]): 0.39 µM
t1/2 (Rattus norvegicus): 2.93 h
Activity (SK-OV-3 [27]): 40.71%
solubility [7]: > 10000 µM
inhibition (Tubulin (Homo sapiens) [28]): Dose-dependent effect
Activity (SK-OV-3 [29]): 10.22%
inhibition (Tubulin (Homo sapiens) [30]): Active
Activity (HepG2 [31]): Active
Activity (SK-OV-3 [32]): 34.11%
Activity (SK-OV-3 [33]): 3.97%
IC50 [8]: 0.2 µM
Drug degradation (Serum [9]): 12.77%
Activity (SK-OV-3 [34]): Active
inhibition (Tubulin (Homo sapiens) [35]): Active
Activity (SK-OV-3 [36]): Active
Activity (SK-OV-3 [37]): 93.1%

CCOc1ccc(-c2nc(NC(=O)CN)sc2-c2cc(OC)c(OC)c(OC)c2)cc1.Cl
IC50 [1]: 0.2 µM
Drug degradation (Serum [2]): 25.92%
inhibition in vivo at 10 mg/kg [3]: 17.6%
Activity (NCI-H460): Active
inhibition in vivo at 20 mg/kg [4]: 51.1%
Activity (SK-OV-3 [5]): Active
IC50 (HepG2 [6]): 0.26 µM
solubility [7]: > 10000 µM
IC50 [8]: 0.21 µM
Drug degradation (Serum [9]): 17.43%

CCOc1ccc(-c2nc(NC(=O)[C@@H]3CCCN3)sc2-c2cc(OC)c(OC)c(OC)c2)cc1.Cl
IC50 [1]: 0.08 µM
Drug degradation (Serum [2]): 16.55%
Activity (NCI-H460): Active
inhibition in vivo at 20 mg/kg [4]: 39.4%
IC50 (HepG2 [6]): 0.11 µM
solubility [7]: 458 µM
IC50 [8]: > 2 µM
Drug degradation (Serum [9]): 12.54%

CCOc1ccc(-c2nc(NC(=O)[C@@H](N)Cc3ccccc3)sc2-c2cc(OC)c(OC)c(OC)c2)cc1.Cl
IC50 [1]: 0.1 µM
Drug degradation (Serum [2]): 70.21%
Activity (NCI-H460): Active
inhibition in vivo at 20 mg/kg [4]: 46.1%
IC50 (HepG2 [6]): 0.09 µM
solubility [7]: 436 µM
IC50 [8]: > 2 µM
Drug degradation (Serum [9]): 45.85%

CCOc1ccc(-c2nc(NC(=O)C(N)COCc3ccccc3)sc2-c2cc(OC)c(OC)c(OC)c2)cc1.Cl (centres undefined)
IC50 [1]: 0.3 µM
Drug degradation (Serum [2]): 42.56%
Activity (NCI-H460): Active
inhibition in vivo at 20 mg/kg [4]: 44.8%
IC50 (HepG2 [6]): 0.47 µM
solubility [7]: 259 µM
IC50 [8]: > 2 µM
Drug degradation (Serum [9]): 39.46%
